Measurements: patent US11957783B2, “Topical immunosensitizers to treat viral and fungal infections” (Squarex, LLC, priority 2018, dated 2024)
Marks after values point to notes of the source that are not given here.

System: peripheral blood mononuclear cells (PBMC)
Assay: Cytokine and immune-function gene expression of PBMC in vitro (qRT-PCR, 41 immune-related genes)
Assay type: cell-based, human
Experimental: After a screening visit at which blood was drawn to test for IgG antibody against HSV-1 and subjects were interviewed for inclusion/exclusion criteria, selected subjects returned for blood draws on day 1. After the blood draw on day 1, subjects in group A only were dosed with SADBE. A petrolatum donut was applied with a cotton swab to form about a 1 cm diameter donut on skin on the inner aspect of the upper arm. Then a separate cotton swab was dipped in a 2% SADBE solution (w/v) in DMSO, and the swab was then used to apply about 10-20 mg of solution over about a 1 cm diameter circle within the petrolatum donut. Immediately after application, the application site was covered with TEGADERM. Subjects were advised to remove the TEGADERM and rinse and wipe the spot three hours later. The group A subjects then returned for blood draws on days 15 and 57 and were queried about adverse events on those dates.
PBMC were isolated using SepMate PBMC isolation tubes (Stem Cell Technologies, Vancouver, Canada) and Ficoll-Paque according to the manufacturer's instructions. PBMC were isolated and suspended in negative control medium at 2 million cells/ml. PBMC suspension (100 μL) was added to 100 μL of medium in quadruplicate in 96-well plates. The plates were prepared in advance and stored at −70° C. The wells were in five different conditions in quadruplicate with these final concentrations after addition of the 100 μL of PBMC suspension in negative control medium. • 1. Negative control in medium (RPMI with glutamine and pen/strep, supplemented with 10% human A/B serum). • 2. Medium plus 16 μg/ml protein from heat-inactivated HSV-1-infected Vero cell extracts. • 3. Medium plus heat-inactivated HSV-1 cell-free virus at a final 7.5 million pfu/ml. • 4. Medium plus Candida cell extract. (Greer item number M15A50, 20,000 pnu/ml allergenic extract mixed molds Candida albicans, was diluted 1/50 into medium). • 5. Positive control, medium plus 10 μg/ml concanavalin A.
Two plates were created for each subject at each collection point. One plate was incubated for 2 days at 37° C. in a humidified 5% CO2 atmosphere and then RNA was isolated from the pooled contents of the 4 wells of a given condition for a specific patient, and the RNA was stored at −70° C. and subsequently used for quantitative real time PCR analysis of gene expression of 41 immune-related genes.
As noted above, after 2 days of growth of the PBMC in a 37° C. humidified 5% CO2 incubator in a 96-well plate, four wells of a single condition (negative control, positive control, heat-inactivated HSV-1, HSV-1-infected cell extracts, or Candida extract) with cells from a single subject (200 μL in each well) were pooled, and the RNA was immediately isolated with Trizol reagent and chloroform by Qiagen RNeasy MiniElute clean up kit Qiagen cat #74204, according to manufacturer's instructions into a final volume of 13 μL, and then flash frozen on powdered dry ice, and stored at −70° C. in aliquots of 3 μL for RNA quantification and 10 μL for PCR analysis.
RNA was preamplified with the Qiagen RT2 PreAMP cDNA synthesis kit (Ref. 330451) and custom RT2 PreAmp primer mix (Ref. 330141) starting with about 50 ng RNA according to the procedure of RT preamp cDNA synthesis handbook date March 2011, pages 17-20. The amplification reactions (final 120 μL) were frozen at −70° C. and used for qPCR analysis the next day.
qPCR was done with the Qiagen RT PCR profiler gene analysis kit (catalog number 330451) using RT2 Sybr Green Rox qPCR Mastermix (24) (Part 330523) and Custom RT2 PCR array plates (Ref. 330171). For this 675 μL 2×RT2 SYBR green mastermix, 51 μL pre-AMP synthesis reaction, and 623 μL RNase free water were mixed, and then 25 μL of the mixture was added to 48 wells on the left or right half of the custom PCR plate. The PCR instrument was Applied Biosystems 7900HT fast real time PCR. […]

[1] = PBMC + Candida extract, group A day 57 vs day 1 (pre-dose), one topical 2% SADBE dose
[2] = PBMC + HSV-1-infected cell extracts (CE), group A day 57 vs day 1 (pre-dose), one topical 2% SADBE dose
[3] = PBMC + heat-killed HSV-1 virus, group A day 57 vs day 1 (pre-dose), one topical 2% SADBE dose

SMILES: CCCCOc1c(OCCCC)c(=O)c1=O [SADBE, 3,4-Dibutoxy-3-cyclobutene-1,2-dione]
- ratio of absolute expression in A57 vs. A1: FOXP3 [1]: 2.01
- ratio of absolute expression in A57 vs. A1: GATA3 [1]: 0.28
- ratio of absolute expression in A57 vs. A1: ICAM1 [1]: 1.27
- ratio of absolute expression in A57 vs. A1: IFNA1 [1]: 2.13
- ratio of absolute expression in A57 vs. A1: IFNB1 [1]: 0.93
- ratio of absolute expression in A57 vs. A1: IFNG [1]: 8.54
- ratio of absolute expression in A57 vs. A1: IL1B [1]: 1.73
- ratio of absolute expression in A57 vs. A1: IL1R1 [1]: 0.9
- ratio of absolute expression in A57 vs. A1: IL1RN [1]: 1.91
- ratio of absolute expression in A57 vs. A1: IL2 [1]: 6.31
- ratio of absolute expression in A57 vs. A1: IL4 [1]: 1.52
- ratio of absolute expression in A57 vs. A1: IL5 [1]: 1.1
- ratio of absolute expression in A57 vs. A1: IL8 [1]: 1.89
- ratio of absolute expression in A57 vs. A1: IL10 [1]: 1.12
- ratio of absolute expression in A57 vs. A1: IL12A [1]: 1.64
- ratio of absolute expression in A57 vs. A1: IL12B [1]: 3.61
- ratio of absolute expression in A57 vs. A1: IL13 [1]: 4.28
- ratio of absolute expression in A57 vs. A1: IL15 [1]: 2.18
- ratio of absolute expression in A57 vs. A1: IL16 [1]: 0.81
- ratio of absolute expression in A57 vs. A1: JAK2 [1]: 1.68
- ratio of absolute expression in A57 vs. A1: LTA [1]: 1.94
- ratio of absolute expression in A57 vs. A1: LYZ [1]: 0.93
- ratio of absolute expression in A57 vs. A1: MX1 [1]: 1.34
- ratio of absolute expression in A57 vs. A1: NOD1 [1]: 1.18
- ratio of absolute expression in A57 vs. A1: SPP1 [1]: 7.34
- ratio of absolute expression in A57 vs. A1: STAT1 [1]: 3.36
- ratio of absolute expression in A57 vs. A1: STAT4 [1]: 1.76
- ratio of absolute expression in A57 vs. A1: TNF [1]: 1.22
- ratio of absolute expression in A57 vs. A1: TNFSF10 [1]: 1.52
- ratio of absolute expression in A57 vs. A1: TNFSF13B [1]: 1.62
- ratio of absolute expression in A57 vs. A1: CCL2 [2]: 1.21
- ratio of absolute expression in A57 vs. A1: CCL3 [2]: 4.6
- ratio of absolute expression in A57 vs. A1: CCL7 [2]: 0.75
- ratio of absolute expression in A57 vs. A1: CCR5 [2]: 0.93
- ratio of absolute expression in A57 vs. A1: CD80 [2]: 0.93
- ratio of absolute expression in A57 vs. A1: CXCL2 [2]: 2.79
- ratio of absolute expression in A57 vs. A1: CXCL5 [2]: 6.03
- ratio of absolute expression in A57 vs. A1: CXCL9 [2]: 0.91
- ratio of absolute expression in A57 vs. A1: CXCL10 [2]: 0.49
- ratio of absolute expression in A57 vs. A1: CXCL11 [2]: 0.31
- ratio of absolute expression in A57 vs. A1: DDX58 [2]: 0.94
- ratio of absolute expression in A57 vs. A1: FOXP3 [2]: 1.11
- ratio of absolute expression in A57 vs. A1: GATA3 [2]: 2.6
- ratio of absolute expression in A57 vs. A1: ICAM1 [2]: 0.77
- ratio of absolute expression in A57 vs. A1: IFNA1 [2]: 1.29
- ratio of absolute expression in A57 vs. A1: IFNB1 [2]: 0.65
- ratio of absolute expression in A57 vs. A1: IFNG [2]: 5.72
- ratio of absolute expression in A57 vs. A1: IL1B [2]: 21.45
- ratio of absolute expression in A57 vs. A1: IL1R1 [2]: 1.11
- ratio of absolute expression in A57 vs. A1: IL1RN [2]: 0.79
- ratio of absolute expression in A57 vs. A1: IL2 [2]: 2.48
- ratio of absolute expression in A57 vs. A1: IL4 [2]: 0.89
- ratio of absolute expression in A57 vs. A1: IL5 [2]: 0.5
- ratio of absolute expression in A57 vs. A1: IL8 [2]: 3.86
- ratio of absolute expression in A57 vs. A1: IL10 [2]: 3.29
- ratio of absolute expression in A57 vs. A1: IL12A [2]: 0.89
- ratio of absolute expression in A57 vs. A1: IL12B [2]: 0.23
- ratio of absolute expression in A57 vs. A1: IL13 [2]: 2.28
- ratio of absolute expression in A57 vs. A1: IL15 [2]: 0.87
- ratio of absolute expression in A57 vs. A1: IL16 [2]: 1.02
- ratio of absolute expression in A57 vs. A1: JAK2 [2]: 0.82
- ratio of absolute expression in A57 vs. A1: LTA [2]: 0.99
- ratio of absolute expression in A57 vs. A1: LYZ [2]: 0.29
- ratio of absolute expression in A57 vs. A1: MX1 [2]: 0.66
- ratio of absolute expression in A57 vs. A1: NOD1 [2]: 0.89
- ratio of absolute expression in A57 vs. A1: SPP1 [2]: 5.38
- ratio of absolute expression in A57 vs. A1: STAT1 [2]: 0.91
- ratio of absolute expression in A57 vs. A1: STAT4 [2]: 1.01
- ratio of absolute expression in A57 vs. A1: TNF [2]: 1.2
- ratio of absolute expression in A57 vs. A1: TNFSF10 [2]: 0.88
- ratio of absolute expression in A57 vs. A1: TNFSF1313 [2]: 1.07
- ratio of absolute expression in A57 vs. A1: CCL2 [3]: 1.71
- ratio of absolute expression in A57 vs. A1: CCL3 [3]: 3.73
- ratio of absolute expression in A57 vs. A1: CCL7 [3]: 1.81
- ratio of absolute expression in A57 vs. A1: CCR5 [3]: 1.35
- ratio of absolute expression in A57 vs. A1: CD80 [3]: 1.25
- ratio of absolute expression in A57 vs. A1: CXCL2 [3]: 1.58
- ratio of absolute expression in A57 vs. A1: CXCL5 [3]: 2.52
- ratio of absolute expression in A57 vs. A1: CXCL9 [3]: 2.5
- ratio of absolute expression in A57 vs. A1: CXCL10 [3]: 1
- ratio of absolute expression in A57 vs. A1: CXCL11 [3]: 0.4
- ratio of absolute expression in A57 vs. A1: DDX58 [3]: 0.95
- ratio of absolute expression in A57 vs. A1: FOXP3 [3]: 2.46
- ratio of absolute expression in A57 vs. A1: GATA3 [3]: 0.32
- ratio of absolute expression in A57 vs. A1: ICAM1 [3]: 1.07
- ratio of absolute expression in A57 vs. A1: IFNA1 [3]: 1.34
- ratio of absolute expression in A57 vs. A1: IFNB1 [3]: 0.87
- ratio of absolute expression in A57 vs. A1: IFNG [3]: 11.01
- ratio of absolute expression in A57 vs. A1: IL1B [3]: 5.09
- ratio of absolute expression in A57 vs. A1: IL1R1 [3]: 0.97
- ratio of absolute expression in A57 vs. A1: IL1RN [3]: 1.48
- ratio of absolute expression in A57 vs. A1: IL2 [3]: 2.11
- ratio of absolute expression in A57 vs. A1: IL4 [3]: 1.32
- ratio of absolute expression in A57 vs. A1: IL5 [3]: 0.56
- ratio of absolute expression in A57 vs. A1: IL8 [3]: 3.3
- ratio of absolute expression in A57 vs. A1: IL10 [3]: 2.29
- ratio of absolute expression in A57 vs. A1: IL12A [3]: 1.48
- ratio of absolute expression in A57 vs. A1: IL12B [3]: 2.08
- ratio of absolute expression in A57 vs. A1: IL13 [3]: 3.02
- ratio of absolute expression in A57 vs. A1: IL15 [3]: 1.54
- ratio of absolute expression in A57 vs. A1: IL16 [3]: 0.82
- ratio of absolute expression in A57 vs. A1: JAK2 [3]: 1.26
- ratio of absolute expression in A57 vs. A1: LTA [3]: 1.84
- ratio of absolute expression in A57 vs. A1: LYZ [3]: 0.53
- ratio of absolute expression in A57 vs. A1: MX1 [3]: 0.66
- ratio of absolute expression in A57 vs. A1: NOD1 [3]: 1.14
- ratio of absolute expression in A57 vs. A1: SPP1 [3]: 15.29
- ratio of absolute expression in A57 vs. A1: STAT1 [3]: 1.41
- ratio of absolute expression in A57 vs. A1: STAT4 [3]: 1.69
- ratio of absolute expression in A57 vs. A1: TNF [3]: 1.19
- ratio of absolute expression in A57 vs. A1: TNFSF10 [3]: 1.01
- ratio of absolute expression in A57 vs. A1: TNFSF13B [3]: 1.23
- Ratio of absolute IFNG gene expression in group A vs. Groups B + C pooled (Virus, group A day 57 after SADBE): 3.359*
- IFNG expression in group A on day 57 than day 1 (all three stimuli, PBMC): at least 8 fold
